Patent US12435092B2, “Substituted imidazo[1,2-A]quinazolines as inhibitors of PARG” (858 Therapeutics, Inc., priority 2022, dated 2025)

Biological target: T1, cellular PARG (Homo sapiens, UniProt Q86W56)
T1 construct: endogenous in cells; host or cells: HeLa
Test: Nuclear PAR accumulation assay (immunofluorescence high-content imaging)
Type: cell-based
Conditions: HeLa cells, 1 hour compound treatment then MMS 50 μg/mL for an additional hour
Method: Compound IC50 values for inhibition of cellular PARG were determined using an immunofluorescence high-content imaging assay for nuclear PAR accumulation. HeLa cells were plated at 15,000 cells/well in a 96-well plate the day before compound treatment and then treated with varying concentrations of test compound and incubated for 1 hour at 37° C.+5% CO2. Following test compound treatment, methylmethane sulfonate (MMS) was added to a final concentration of 50 μg/mL and the cells were incubated for an additional hour. Following treatment, the cells were fixed with ice cold 95% methanol and the plates sealed and placed at −20° C. for 15 minutes. The cells were then washed once with phosphate buffered saline (PBS) and permeabilized with 0.1% Triton-X 100 for 20 minutes at room temperature. The cells were again washed once with PBS and incubated with an anti-poly-ADP ribose (PAR) monoclonal antibody (Millipore Part #AM80 clone 10H) diluted 1:1,000 in 5% fetal bovine serum +0.1% Tween-20+PBS overnight at 4° C. The cells were then washed three times with PBS before incubation with a fluorescently conjugated goat anti-mouse antibody (Invitrogen A32723) diluted 1:500 in 5% FBS+0.1% Tween-20+PBS for 1 hour at room temperature. The cells were again washed three times with PBS and the nuclei labeled by incubating with 1 μg/mL DAPI (4′,6-diamidino-2-phenylindole). Nuclear PAR accumulation was evaluated using high-content fluorescence microscopy. Four fields for each well were acquired at 20× magnification resulting in at least 1,000 cells analyzed per well. Using high-content software (CellReporterXpress) the nuclei were detected and segmented using the DAPI channel and the fluorescence intensity of the PAR-Alexa 488 channel was quantified within the nuclei regions. Both the average intensity per nucleus and percent PAR positive cells were quantified. Percent PAR positive cells were identified by having greater anti-PAR labeling above the threshold set with vehicle DMSO treated control cells. Percent inhibition of PARG by test compounds was calculated by normalizing the data to the 0.1% DMSO and reference compound control values, which represent 0% and 100% inhibition of enzymatic activity, respectively. Concentration-response-curves and IC50 values were generated using four parameter logistic curve fit software.

T1 sequence (Q86W56 whole entry): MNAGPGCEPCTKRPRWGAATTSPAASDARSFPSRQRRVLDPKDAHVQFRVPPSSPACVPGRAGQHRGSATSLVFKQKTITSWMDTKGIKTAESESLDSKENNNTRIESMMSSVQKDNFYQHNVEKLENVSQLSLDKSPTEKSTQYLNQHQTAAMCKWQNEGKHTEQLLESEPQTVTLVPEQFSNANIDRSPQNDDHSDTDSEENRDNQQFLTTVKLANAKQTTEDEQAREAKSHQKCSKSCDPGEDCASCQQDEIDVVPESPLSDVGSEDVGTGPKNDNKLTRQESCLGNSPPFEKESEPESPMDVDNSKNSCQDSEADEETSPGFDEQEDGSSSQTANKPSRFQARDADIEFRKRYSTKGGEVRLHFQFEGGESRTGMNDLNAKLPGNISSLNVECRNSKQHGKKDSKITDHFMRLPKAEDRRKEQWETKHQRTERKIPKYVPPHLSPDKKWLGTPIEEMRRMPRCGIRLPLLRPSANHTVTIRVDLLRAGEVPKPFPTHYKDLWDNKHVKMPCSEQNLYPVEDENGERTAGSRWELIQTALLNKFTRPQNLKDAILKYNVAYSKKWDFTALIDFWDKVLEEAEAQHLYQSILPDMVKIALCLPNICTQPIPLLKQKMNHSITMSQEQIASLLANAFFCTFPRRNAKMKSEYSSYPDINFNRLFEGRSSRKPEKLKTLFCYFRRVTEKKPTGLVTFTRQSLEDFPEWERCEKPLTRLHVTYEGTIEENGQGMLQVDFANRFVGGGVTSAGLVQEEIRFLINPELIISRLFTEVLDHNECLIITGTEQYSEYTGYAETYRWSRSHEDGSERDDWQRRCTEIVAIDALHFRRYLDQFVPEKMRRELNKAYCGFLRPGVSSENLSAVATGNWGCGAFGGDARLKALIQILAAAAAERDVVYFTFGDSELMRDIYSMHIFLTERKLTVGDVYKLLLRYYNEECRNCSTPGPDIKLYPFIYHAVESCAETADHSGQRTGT

IC50 [µM]	SMILES
1 to 10	C[C@@H]1CN=C2N(CC3CC(=O)N(C)C3)C(=O)c3cc(S(=O)(=O)NC4(C)CC4)ccc3N21 (single isomer, unassigned) [Example 123]
1 to 10	CC(c1cnn(C)c1)N1C(=O)c2cc(S(=O)(=O)NC3(C)CC3)ccc2N2C1=NC[C@H]2C (single isomer, unassigned) [Example 125]
1 to 10	CC(c1cnn(C)c1)N1C(=O)c2cc(S(=O)(=O)NC3(C)CC3)ccc2N2C1=NC[C@H]2C (single isomer, unassigned) [Example 126]
0.1 to 1	C[C@@H]1CN=C2N(Cc3cnn(CCO)c3)C(=O)c3cc(S(=O)(=O)NC4(C)CC4)ccc3N21 [Example 1, (R)-4-((1-(2-hydroxyethyl)-1H-pyrazol-4-yl)methyl)-1-methyl-N-(1-methylcyclopropyl)-5-oxo-1,2,4,5-tetrahydroimidazo[1,2-a]quinazoline-7-sulfonamide]
0.1 to 1	C[C@@H]1CN=C2N(Cc3cnn(C)c3)C(=O)c3cc(S(=O)(=O)NC4(C#N)CC4)ccc3N21 [Example 2, (R)—N-(1-cyanocyclopropyl)-1-methyl-4-((1-methyl-1H-pyrazol-4-yl)methyl)-5-oxo-1,2,4,5-tetrahydroimidazo[1,2-a]quinazoline-7-sulfonamide]
0.1 to 1	C[C@@H]1CN=C2N(CC3CC3)C(=O)c3cc(S(=O)(=O)NC4(C)CC4)ccc3N21 [Example 3, (R)-4-(cyclopropylmethyl)-1-methyl-N-(1-methylcyclopropyl)-5-oxo-1,2,4,5-tetrahydroimidazo[1,2-a]quinazoline-7-sulfonamide]
0.1 to 1	C[C@@H]1CN=C2N(Cc3cccnc3)C(=O)c3cc(S(=O)(=O)NC4(C)CC4)ccc3N21 [Example 4, (R)-1-methyl-N-(1-methylcyclopropyl)-5-oxo-4-(pyridin-3-ylmethyl)-1,2,4,5-tetrahydroimidazo[1,2-a]quinazoline-7-sulfonamide]
0.1 to 1	Cc1cc(CN2C(=O)c3cc(S(=O)(=O)NC4(C)CC4)ccc3N3C2=NC[C@H]3C)n[nH]1 [Example 5, (R)-1-methyl-4-((5-methyl-1H-pyrazol-3-yl)methyl)-N-(1-methylcyclopropyl)-5-oxo-1,2,4,5-tetrahydroimidazo[1,2-a]quinazoline-7-sulfonamide]
0.1 to 1	C[C@@H]1CN=C2N(Cc3cn[nH]c3)C(=O)c3cc(S(=O)(=O)NC4(C)CC4)ccc3N21 [Example 6, (R)-4-((1H-pyrazol-4-yl)methyl)-1-methyl-N-(1-methylcyclopropyl)-5-oxo-1,2,4,5-tetrahydroimidazo[1,2-a]quinazoline-7-sulfonamide]
≤ 0.1	Cc1noc(C)c1CN1C(=O)c2cc(S(=O)(=O)NC3(C)CC3)ccc2N2C1=NC[C@H]2C [Example 8, (R)-4-((3,5-dimethylisoxazol-4-yl)methyl)-1-methyl-N-(1-methylcyclopropyl)-5-oxo-1,2,4,5-tetrahydroimidazo[1,2-a]quinazoline-7-sulfonamide]
0.1 to 1	C#C[C@H]1CN=C2N(Cc3cc(C)no3)C(=O)c3cc(S(=O)(=O)NC4(C)CC4)ccc3N21 [Example 9, (S)-1-ethynyl-N-(1-methylcyclopropyl)-4-((3-methylisoxazol-5-yl)methyl)-5-oxo-1,2,4,5-tetrahydroimidazo[1,2-a]quinazoline-7-sulfonamide]
≤ 0.1	C#C[C@@H]1CN=C2N(Cc3cc(C)no3)C(=O)c3cc(S(=O)(=O)NC4(C)CC4)ccc3N21 [Example 10, (R)-1-ethynyl-N-(1-methylcyclopropyl)-4-((3-methylisoxazol-5-yl)methyl)-5-oxo-1,2,4,5-tetrahydroimidazo[1,2-a]quinazoline-7-sulfonamide]
> 10	Cc1cc(CN2C(=O)c3cc(S(=O)(=O)NC4(C)CC4)ccc3N3C2=NC[C@@H]3C(C)C)on1 [Example 11, (S)-1-isopropyl-N-(1-methylcyclopropyl)-4-((3-methylisoxazol-5-yl)methyl)-5-oxo-1,2,4,5-tetrahydroimidazo[1,2-a]quinazoline-7-sulfonamide]
0.1 to 1	Cc1cc(CN2C(=O)c3cc(S(=O)(=O)NC4(C)CC4)ccc3N3C2=NC[C@H]3C(C)C)on1 [Example 12, (R)-1-isopropyl-N-(1-methylcyclopropyl)-4-((3-methylisoxazol-5-yl)methyl)-5-oxo-1,2,4,5-tetrahydroimidazo[1,2-a]quinazoline-7-sulfonamide]
1 to 10	CC[C@H]1CN=C2N(Cc3c(C)noc3C)C(=O)c3cc(S(=O)(=O)NC4(C)CC4)ccc3N21 [Example 13, (S)-4-((3,5-dimethylisoxazol-4-yl)methyl)-1-ethyl-N-(1-methylcyclopropyl)-5-oxo-1,2,4,5-tetrahydroimidazo[1,2-a]quinazoline-7-sulfonamide]
≤ 0.1	CC[C@@H]1CN=C2N(Cc3c(C)noc3C)C(=O)c3cc(S(=O)(=O)NC4(C)CC4)ccc3N21 [Example 14, (R)-4-((3,5-dimethylisoxazol-4-yl)methyl)-1-ethyl-N-(1-methylcyclopropyl)-5-oxo-1,2,4,5-tetrahydroimidazo[1,2-a]quinazoline-7-sulfonamide]
0.1 to 1	C#C[C@H]1CN=C2N(Cc3cnc(C)s3)C(=O)c3cc(S(=O)(=O)NC4(C)CC4)ccc3N21 [Example 15, (S)-1-ethynyl-N-(1-methylcyclopropyl)-4-((2-methylthiazol-5-yl)methyl)-5-oxo-1,2,4,5-tetrahydroimidazo[1,2-a]quinazoline-7-sulfonamide]
≤ 0.1	C#C[C@@H]1CN=C2N(Cc3cnc(C)s3)C(=O)c3cc(S(=O)(=O)NC4(C)CC4)ccc3N21 [Example 16, (R)-1-ethynyl-N-(1-methylcyclopropyl)-4-((2-methylthiazol-5-yl)methyl)-5-oxo-1,2,4,5-tetrahydroimidazo[1,2-a]quinazoline-7-sulfonamide]
0.1 to 1	Cc1ncc(CN2C(=O)c3cc(S(=O)(=O)NC4(C)CC4)ccc3N3C2=NC[C@@H]3C2CC2)s1 [Example 17, (S)-1-cyclopropyl-N-(1-methylcyclopropyl)-4-((2-methylthiazol-5-yl)methyl)-5-oxo-1,2,4,5-tetrahydroimidazo[1,2-a]quinazoline-7-sulfonamide]
≤ 0.1	Cc1ncc(CN2C(=O)c3cc(S(=O)(=O)NC4(C)CC4)ccc3N3C2=NC[C@H]3C2CC2)s1 [Example 18, (R)-1-cyclopropyl-N-(1-methylcyclopropyl)-4-((2-methylthiazol-5-yl)methyl)-5-oxo-1,2,4,5-tetrahydroimidazo[1,2-a]quinazoline-7-sulfonamide]
> 10	Cc1ncc(CN2C(=O)c3cc(S(=O)(=O)NC4(C)CC4)ccc3N3C2=NC[C@@H]3C(C)C)s1 [Example 19, (S)-1-isopropyl-N-(1-methylcyclopropyl)-4-((2-methylthiazol-5-yl)methyl)-5-oxo-1,2,4,5-tetrahydroimidazo[1,2-a]quinazoline-7-sulfonamide]
≤ 0.1	Cc1ncc(CN2C(=O)c3cc(S(=O)(=O)NC4(C)CC4)ccc3N3C2=NC[C@H]3C(C)C)s1 [Example 20, (R)-1-isopropyl-N-(1-methylcyclopropyl)-4-((2-methylthiazol-5-yl)methyl)-5-oxo-1,2,4,5-tetrahydroimidazo[1,2-a]quinazoline-7-sulfonamide]
0.1 to 1	Cc1cc(CN2C(=O)c3cc(S(=O)(=O)NC4(C)CC4)ccc3N3C2=NC[C@@H]3C2CC2)on1 [Example 21, (S)-1-cyclopropyl-N-(1-methylcyclopropyl)-4-((3-methylisoxazol-5-yl)methyl)-5-oxo-1,2,4,5-tetrahydroimidazo[1,2-a]quinazoline-7-sulfonamide]
≤ 0.1	Cc1cc(CN2C(=O)c3cc(S(=O)(=O)NC4(C)CC4)ccc3N3C2=NC[C@H]3C2CC2)on1 [Example 22, (R)-1-cyclopropyl-N-(1-methylcyclopropyl)-4-((3-methylisoxazol-5-yl)methyl)-5-oxo-1,2,4,5-tetrahydroimidazo[1,2-a]quinazoline-7-sulfonamide]
1 to 10	CC[C@H]1CN=C2N(Cc3cc(C)no3)C(=O)c3cc(S(=O)(=O)NC4(C)CC4)ccc3N21 [Example 23, (S)-1-ethyl-N-(1-methylcyclopropyl)-4-((3-methylisoxazol-5-yl)methyl)-5-oxo-1,2,4,5-tetrahydroimidazo[1,2-a]quinazoline-7-sulfonamide]
≤ 0.1	CC[C@@H]1CN=C2N(Cc3cc(C)no3)C(=O)c3cc(S(=O)(=O)NC4(C)CC4)ccc3N21 [Example 24, (R)-1-ethyl-N-(1-methylcyclopropyl)-4-((3-methylisoxazol-5-yl)methyl)-5-oxo-1,2,4,5-tetrahydroimidazo[1,2-a]quinazoline-7-sulfonamide]
> 10	CCN1C(=O)c2cc(S(=O)(=O)NC3(C)CC3)ccc2N2C1=NC[C@@H]2C1CC1 [Example 25, (S)-1-cyclopropyl-4-ethyl-N-(1-methylcyclopropyl)-5-oxo-1,2,4,5-tetrahydroimidazo[1,2-a]quinazoline-7-sulfonamide]
